Source: patent publication US20140081017A1, “Histone Deacetylase Inhibitors for Enhancing Activity of Antifungal Agents” (METHYLGENE INC., priority 2012, published 2014)
≈ marks a conversion by molar mass, not a printed value. Where two headings read alike, the source gives them in different places.

How the values were obtained:
C. glabrata = assay: Checkerboard FIC assay in combination with fluconazole (MIC alone and in combination, FICI); format: cell-based, Candida glabrata; details: for FICI of combination resulting in fluconazole MIC of: 2 ug/mL / FICI of combination resulting in fluconazole MIC of: 4 ug/mL / FICI of combination resulting in fluconazole MIC of: 8 ug/mL: FICI calculated using a fluconazole MIC of 16 μg/mL; for FICI of combination resulting in fluconazole MIC of: 2 ug/mL (value in parenthesis) / FICI of combination resulting in fluconazole MIC of: 4 ug/mL (value in parenthesis) / FICI of combination resulting in fluconazole MIC of: 8 ug/mL (value in parenthesis): FICI using a fluconazole MIC of 128 μg/mL; for MIC: Nakaseomyces glabratus; for Concentration of Methylgene compound to synergize fluconazole MIC to 2 ug/mL / Concentration of Methylgene compound to synergize fluconazole MIC to 4 ug/mL / Concentration of Methylgene compound to synergize fluconazole MIC to 8 ug/mL: in combination with fluconazole; for Concentration of Methylgene compound to synergize fluconazole MIC to 2 ug/mL: fluconazole MIC lowered to 2 ug/mL; for Concentration of Methylgene compound to synergize fluconazole MIC to 4 ug/mL: fluconazole MIC lowered to 4 ug/mL; for Concentration of Methylgene compound to synergize fluconazole MIC to 8 ug/mL: fluconazole MIC lowered to 8 ug/mL; for Multiple of compound MIC to synergize fluconazole MIC to 2 ug/mL / Multiple of compound MIC to synergize fluconazole MIC to 4 ug/mL / Multiple of compound MIC to synergize fluconazole MIC to 8 ug/mL: concentration in combination as multiple of the compound's MIC alone; for Multiple of compound MIC to synergize fluconazole MIC to 2 ug/mL: fluconazole MIC 2 ug/mL; for Multiple of compound MIC to synergize fluconazole MIC to 4 ug/mL: fluconazole MIC 4 ug/mL; for Multiple of compound MIC to synergize fluconazole MIC to 8 ug/mL: fluconazole MIC 8 ug/mL
Description: The ability of the compounds to synergize with azoles against C. glabrata was evaluated by the checkerboard assay, a common laboratory method used to evaluate synergy, antagonism, and indifference using fractional inhibitory concentrations (FICs) and FIC indices (FICI).
The test compounds were supplied as a powder and dissolved in dimethylsulfoxide (DMSO) on the day of assay. Stock solutions were prepared at 640 ug/mL. Fluconazole was dissolved in deionized water to a stock concentration of 320 ug/mL. All test articles were in solution under these conditions.
(§1) The test organisms and reference isolates were streaked for isolation on Sabouraud agar medium (yeasts) or potato dextrose agar (fungi). Colonies were picked by swab from the medium and resuspended in the appropriate broth containing cryoprotectant. The suspensions were aliquoted into cryogenic vials and maintained at −80° C.
(§2) Prior to testing, the yeast isolates were streaked from the frozen vials onto Sabouraud dextrose agar. The plates were incubated overnight at 35° C. The fungal isolate was grown on potato dextrose agar slants and was incubated for 7-10 days at room temperature.
(§3) Both yeast and fungal isolates were tested in RPMI medium buffered with 0.165 M MOPS (3-(N-morpholino)propanesulfonic acid). The pH of the medium was adjusted to 7.0 with 1 N NaOH. The medium was sterile filtered using a 0.2 um PES (polyethersulfone) filter and stored at 4° C. until used.
FIC values were determined using a broth microdilution method (CLSI; 1, 3). To prepare the test plates, automated liquid handlers (Multidrop 384, Labsystems, Helsinki, Finland; Biomek 2000 and Biomek FX, Beckman Coulter, Fullerton Calif.) were used to conduct serial dilutions and liquid transfers.
The wells of standard 96-well microdilution plates (Costar 3795) were filled with 150 uL of DMSO in columns 2-12. Three hundred microliters of each test compound was added to each well in Column 1 of the plates. The Biomek 2000 was used to make eleven 2-fold serial dilutions in each of these “test compound mother” plates. The wells of the “fluconazole mother plates” were filled with 150 uL of sterile water in rows B-H. Row A of these plates was filled with 300 uL of the fluconazole stock solution. Serial 2-fold dilutions were then prepared from top to bottom by hand, using a multichannel pipette in rows B-G. The “daughter plates” were loaded with 180 uL of RPMI using the Multidrop 384. The Biomek FX was used to transfer 5 uL of compound solution from each well of a fluconazole mother plate to the corresponding well in all of the daughter plates in a single step. Then the Biomek FX was used to transfer 5 uL of compound solution from each well of a test compound mother plate to the corresponding well of the corresponding test compound daughter plate (already containing fluconazole at the appropriate concentrations) in a single step. Row H and Column 12 each contained serial dilutions of the test agent and fluconazole alone, respectively, for determination of the MIC.
Standardized inoculum of each organism was prepared per CLSI methods (CLSI; 1, 3). For yeast isolates, colonies were picked from the primary plate and a suspension was prepared in 0.85% saline to equal a 0.5 McFarland turbidity standard. For the fungal isolate, 1 mL of 0.85% saline was dispensed onto a potato dextrose agar slant onto which the isolate had been inoculated 7-10 days previously. Using a swab, a suspension of the fungus was made. After a short time to allow the heavy particles to settle out, a small quantity of the supernatant was dispensed into 0.85% saline and the suspension was adjusted to equal a 0.5 McFarland turbidity standard. Both yeast and fungal isolates were diluted 1:100 in RPMI and then transferred to compartments of sterile reservoirs divided by length (Beckman Coulter). The Biomek 2000 was used to inoculate the plates. […]

Candida glabrata = assay: Minimal Inhibitory Concentration (MIC) assay, broth microdilution per CLSI; format: cell-based; details: Nakaseomyces glabratus, read-out: Minimum Inhibitory Concentrations against Yeast Isolates, Candida glabrata;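 further: two read times 24 hr and 48 hr of incubation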
Description: (§4) The in vitro activities of the inventive compounds (compound(s) herein) against fungi and/or yeasts were determined with isolates Candida albicans, Candida glabrata and Candida parapsilosis. The comparator compounds included fluconazole, caspofungin and amphotericin B.
(§5) The compounds were supplied as a powder, and were dissolved in dimethylsulfoxide (DMSO) the day of assay. Stock solutions were prepared at 10 mg/mL and diluted to a starting stock concentration of 2.56 mg/mL. Amphotericin B was dissolved in DMSO to a stock concentration of 2.56 mg/mL. Fluconazole was dissolved in deionized water to a stock concentration of 2.56 mg/mL. Caspofungin was received as a stock solution of 3.2 mg/mL in DMSO and was diluted to a starting stock concentration of 2.56 mg/mL.
as §1, §2, §3
(§6) The MIC assay method followed the procedure described by the Clinical and Laboratory Standards Institute (CLSI; 1, 2, 3) and employed automated liquid handlers to conduct serial dilutions and liquid transfers. Automated liquid handlers included the Multidrop 384 (Labsystems, Helsinki, Finland), Biomek 2000 and Biomek FX (Beckman Coulter, Fullerton Calif.). The wells in columns 2-12 in standard 96-well microdilution plates (Costar 3795) were filled with 150 ul of 100% DMSO. These would become the ‘mother plates’ from which ‘daughter’ or test plates would be prepared. The compounds (300 uL at 40× the desired top concentration in the test plates) were dispensed into the appropriate well in Column 1 of the mother plates. The Biomek 2000 was used to make serial 1:1 dilutions through Column 11 in the “mother plate”. The wells of Column 12 contained no compounds and were the organism growth control wells.
(§7) The daughter plates were loaded with 185 uL per well of RPMI described above using the Multidrop 384. The daughter plates were prepared using the Biomek FX which transferred 5 μL of the compound solution from each well of a mother plate to the corresponding well of the daughter plate in a single step.
(§8) Standardized inoculum of each organism was prepared per CLSI methods. For yeast isolates, colonies were picked from the streak plate and a suspension was prepared in 0.85% saline. For the fungal isolate, 1 mL of 0.85% saline was dispensed onto the potato dextrose agar slant that had been inoculated 7-10 days previously. Using a swab, a suspension of the fungus was made. After a short time to allow the heavy particles to settle out, a small quantity of the supernatant was dispensed into 0.85% saline and the suspension adjusted to equal a 0.5 McFarland turbidity standard. Both yeast and fungal isolates were diluted 1:100 in RPMI and then transferred to compartments of sterile reservoirs divided by length (Beckman Coulter). The Biomek 2000 was used to inoculate the plates. Daughter plates were placed on the Biomek 2000 work surface reversed so that inoculation took place from low to high compound concentration. The Biomek 2000 delivered 10 μL of standardized inoculum into each well. Thus, the wells of the daughter plates ultimately contained 185 uL of RPMI, 5 uL of the compound solution, and 10 uL of inoculum. […]

Candida albicans = assay: as above; format: cell-based; details: Candida albicans, read-out: Minimum Inhibitory Concentrations against Yeast Isolates, Candida albicans;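 further: two read times 24 hr and 48 hr of incubation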
Description: as §4, §5, §1, §2, §3, §6, §7, §8

Candida parapsilosis = assay: as above; format: cell-based; details: Lodderomyces parapsilosis, read-out: Minimum Inhibitory Concentrations against Yeast Isolates, Candida parapsilosis;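 further: two read times 24 hr and 48 hr of incubation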
Description: as §4, §5, §1, §2, §3, §6, §7, §8

[1] = MIC of the example compound alone against C. glabrata in the checkerboard assay, approximately 48 hr, read-out: Methylgene MIC
[2] = test compound alone, C. glabrata, approx. 48 hr at 35° C., read-out: Compound MIC
[3] = 24 hr reading (first value of cell 24 hr/48 hr)
[4] = 48 hr reading (second value of cell 24 hr/48 hr)

Row | FICI of combination resulting in fluconazole MIC of: 2 ug/mL (C. glabrata; C. glabrata) | FICI of combination resulting in fluconazole MIC of: 4 ug/mL (C. glabrata; C. glabrata) | FICI of combination resulting in fluconazole MIC of: 8 ug/mL (C. glabrata; C. glabrata) | FICI of combination resulting in fluconazole MIC of: 2 ug/mL (value in parenthesis) (C. glabrata; C. glabrata) | FICI of combination resulting in fluconazole MIC of: 4 ug/mL (value in parenthesis) (C. glabrata; C. glabrata) | FICI of combination resulting in fluconazole MIC of: 8 ug/mL (value in parenthesis) (C. glabrata; C. glabrata) | MIC (C. glabrata; [1]) [µg/mL] | MIC (C. glabrata; [2]) [µg/mL] | Concentration of Methylgene compound to synergize fluconazole MIC to 2 ug/mL (C. glabrata; C. glabrata) [µg/mL] | Concentration of Methylgene compound to synergize fluconazole MIC to 4 ug/mL (C. glabrata; C. glabrata) [µg/mL] | Concentration of Methylgene compound to synergize fluconazole MIC to 8 ug/mL (C. glabrata; C. glabrata) [µg/mL] | MIC (Candida glabrata; [3]) [µg/mL] | MIC (Candida glabrata; [4]) [µg/mL] | MIC (Candida albicans; [3]) [µg/mL] | MIC (Candida albicans; [4]) [µg/mL] | MIC (Candida parapsilosis; [3]) [µg/mL] | MIC (Candida parapsilosis; [4]) [µg/mL] | Multiple of compound MIC to synergize fluconazole MIC to 2 ug/mL (C. glabrata) | Multiple of compound MIC to synergize fluconazole MIC to 4 ug/mL (C. glabrata) | Multiple of compound MIC to synergize fluconazole MIC to 8 ug/mL (C. glabrata) | SMILES
1 | > 0.125 | > 0.188 | > 0.281 | > 0.078 | > 0.094 | > 0.094 | > 4 | > 4 | 0.5 | 0.5 | 0.25 | 0.5 (≈ 1.4 µM) | > 8 | > 8 | > 8 | > 8 | > 8 | – | – | – | O=C(Cc1ccc(CCCCc2ccc(CC(=O)NO)cc2)cc1)NO [Example 7, 2,2′-(4,4′-(butane-1,4-diyl)bis(4,1-phenylene))bis(N-hydroxyacetamide)]
2 | 0.543 | 0.605 | 0.730 | 0.496 | 0.511 | 0.543 | 0.25 | 0.25 | 0.12 | 0.12 | 0.12 | 0.12 (≈ 0.415 µM) | 0.12 (≈ 0.415 µM) | 0.25 (≈ 0.864 µM) | 0.25 (≈ 0.864 µM) | 0.12 (≈ 0.415 µM) | 0.25 (≈ 0.864 µM) | (½x) | (½x) | (½x) | O=C(Cc1ccc(CCCCC2CCCCC2)cc1)NO [Example 8, 2-(4-(4-cyclohexylbutyl)phenyl)-N-hydroxyacetamide]
3 | 0.625 | 0.490 | 0.620 | 0.516 | 0.271 | 0.183 | 0.5 | 0.5 | 0.25 | 0.12 | 0.06 | 0.5 (≈ 1.6 µM) | > 4 | 1 (≈ 3.19 µM) | 1 (≈ 3.19 µM) | 1 (≈ 3.19 µM) | 1 (≈ 3.19 µM) | (½x) | (¼x) | (⅛x) | COc1ccc(CCCCc2ccc(CC(=O)NO)cc2)cc1 [Example 9, N-hydroxy-2-(4-(4-(4-methoxyphenyl)butyl)phenyl)acetamide]
4 | 0.375 | 0.500 | 0.625 | 0.266 | 0.281 | 0.188 | 2 | 2 | 0.5 | 0.5 | 0.25 | > 64 | > 64 | > 64 | > 64 | > 64 | > 64 | (¼x) | (¼x) | (⅛x) | COCCOCCOCCOCCOCCOc1ccc(CCCCc2ccc(CC(=O)NO)cc2)cc1 [Example 10, 2-(4-(4-(4-(2,5,8,11,14-pentaoxahexadecan-16-yloxy)phenyl)butyl)phenyl)-N-hydroxyacetamide]
